Reference: patent US20150284393A1, “METHODS FOR TREATING EYE DISORDERS” (PRISM PHARMA CO., LTD, priority 2012, published 2015)

Tests used:
[1] = system: rat model of laser-induced choroidal neovascularization; assay: rat model of laser-induced choroidal neovascularization (CNV); type: in vivo, Brown Norway rats; conditions: for average CNV lesion size vs vehicle controls: bilateral intravitreal on Days 3 and 10; for anti-angiogenic or vascular disruption activity: rat model of CNV, intravitreal
Excerpt: The objective of this study was to assess the anti-angiogenic/vascular disrupting effects of Compound A, an alpha helix mimetic β-catenin inhibitor compound, and Compound C, the active metabolite of Compound A, in a rat model of laser-induced choroidal neovascularization. Compound A is 4-(((6S,9S,9aS)-1-(benzylcarbamoyl)-2,9-dimethyl-4,7-dioxo-8-(quinolin-8-ylmethyl)octahydro-1H-pyrazino[2,1-c][1,2,4]triazin-6-yl)methyl)phenyl dihydrogen phosphate. Compound C is (6S,9S,9aS)-N-benzyl-6-(4-hydroxybenzyl)-2,9-dimethyl-4,7-dioxo-8-(quinolin-8-ylmethyl)octahydro-1H-pyrazino[2,1-c][1,2,4]triazine-1-carboxamide.
For compound A, an 80 mg/ml solution of 4-(((6S,9S,9aS)-1-(benzylcarbamoyl)-2,9-dimethyl-4,7-dioxo-8-(quinolin-8-ylmethyl)octahydro-1H-pyrazino[2,1-c][1,2,4]triazin-6-yl)methyl)phenyl dihydrogen phosphate was prepared in sterile PBS. This solution was further diluted 1:4 to make a 20 mg/ml solution. The 20 mg/ml solution was diluted 1:4 to make a 5 mg/ml solution.
For compound C, a solution containing 0.5% NaCMC and 0.5% Polysorbate 80 (Tween 80) was prepared in USP grade water. 20 mg of (6S,9S,9aS)-N-benzyl-6-(4-hydroxybenzyl)-2,9-dimethyl-4,7-dioxo-8-(quinolin-8-ylmethyl)octahydro-1H-pyrazino[2,1-c][1,2,4]triazine-1-carboxamide was dissolved in 1 ml (using displacement pipette) of USP grade PEG400 in a glass vial. Slight heating and sonication/vortexing were performed if necessary. The glass vial containing the 20 mg/ml compound C solution was placed on a magnetic stir plate and an equal volume (1 ml) of the CMC/Tween 80 solution was added to the compound C/PEG400 solution (slowly in drop-wise fashion during continuous mixing with a stir bar). The resultant formulation was a clear solution containing 10 mg/ml compound C, 50% PEG400, 0.25% NaCMC, and 0.25% Tween 80.
Laser application to produce CNV lesions. Animals were dilated with 1% Cyclogyl solution and protected from light. Following observable dilation, the animals were sedated with ketamine/xylazine. The fundus of sedated animals was observed and recorded using a Micron III small animal funduscope (Phoenix Research). Laser treatments were performed using a thermal laser which is connected through the Micron III custom laser attachment. A total of 3 lesions per eye were placed using a wavelength of 520 nm.
Fundus images were recorded to confirm that the laser had successfully produced a bubble through the Bruch's membrane. It was expected that 5-10% of all laser spots would not develop any quantifiable CNV.
Intravitreal injections. Animals were anesthetized with ketamine/xylazine and the test compound was then injected in a volume of 5 μl into the vitreous through the pars plana using a Hamilton syringe and a 32 gauge needle. Following injection, the animals received an equal amount of topical antibiotic ointment on both eyes. Any eyes displaying signs of hemorrhage following laser application or intravitreal injection were excluded from analysis.
Fluorescein angiography. Animals were anesthetized with ketamine/xylazine and then received an IP injection of 10% Fluorescein Sodium at 1 μl/gram of body weight. Fundus images were then captured as 8-bitt TIFF files using the Micron III and exciter/barrier filters for a target wavelength of 488 nm. Standard color fundus photos were also captured for each eye.
Imaging and lesion quantification. All TIFF images were quantified using computerized image-analysis software (ImageJ, NIH, USA). Lesions were then individually traced free-hand in order to quantify the area in pixels and the color fundus photos were used as a reference for lesion location. Areas of avascularization in the center of lesions were excluded from area calculations. In the case of a hemorrhage or two lesions overlapping these lesions were excluded from analysis.
Statistical Analyses. Statistical Analyses were performed with Graphpad Prism software (version 5) using one-way analysis of variance (ANOVA) with a Tukey's post-hoc test for significance.
Animals. […]

[2] = system: rat model of proliferative vitreoretinopathy (PVR) following retinal detachment; assay: rat model of proliferative vitreoretinopathy (PVR) following retinal detachment; type: in vivo, Long Evans rats
Excerpt: The objective of this study was to assess the anti-fibrotic efficacy of Compound A, an alpha helix mimetic β-catenin inhibitor compound, in a rat model of proliferative vitreoretinopathy (PVR) following retinal detachment. Compound A is 4-(((6S,9S,9aS)-1-(benzylcarbamoyl)-2,9-dimethyl-4,7-dioxo-8-(quinolin-8-ylmethyl)octahydro-1H-pyrazino[2,1-c][1,2,4]triazin-6-yl)methyl)phenyl dihydrogen phosphate.
The well defined normal consequences of retinal detachment in this animal model are the hyperproliferation of retinal glial cells (primarily Muller cells), the recruitment of immune cells, and the formation of glial scars. An effective treatment would result in less glial scarring.
Retinal detachments were created by infusing a dilute solution (0.25%) of Healon into the subretinal space of the right eyes in 16 Long Evans rats. Twenty (20) mg/ml of Compound A in 5 microliters were injected intravitreally immediately after the detachment surgery in 8 animals. The other 8 animals received an intravitreal injection of the vehicle as a control. The left eyes served as naive controls. Seven days after detachment, settling of the retina occurs causing folds to form in the retina. All animals were euthanized using CO2, 7 days after retinal detachment.
Following euthanasia, the retinas were fixed in 4% paraformaldehyde for 24 hours. Three retinal regions approximately 3 mm square were sampled from within each detached retina as well as from control retinas. The retinas were embedded in agarose and vibratomed at 100 microns in thickness. Sections were immunolabeled with antibodies to intermediate filament proteins (vimentin) and proliferating cells (phosphohistone H3). A marker for immune cells (isolectin B4) and a nuclear stain (Hoescht) was also used. All 4 probes were added to the same sections (i.e. quadruple labeling).
The sections were imaged using an Olympus FV1000 confocal microscope. Digital images were aquired and used to determine 1) the number and size of subretinal glial scars 2) the number of dividing cells and their cell type e.g. of immune or glial origin 3) whether microglia were “activated” and 4) if macrophages were present.
The data were analyzed using a two-tailed T-test. Mean differences with a P values less than 0.05 were considered significant.
Scar frequency was calculated by dividing the total number of scars noted in each retina by the total area examined. The average scar size/length was calculated by dividing the total scar length in a given retina by the total number of scars counted in that retina.
Immunohistochemistry. Qualitative assessment of animals (4 saline and 4 Compound A treated) were evaluated for glial scarring, cell proliferation, and immune cell infiltrates. Three retinal regions from rats 5-8 (PVR+saline) and 13-16 (PVR+Compound A) were excised from the eye, sectioned, and labeled with antibodies (˜25 sections from each eye were surveyed).

| SMILES | size of the lesions ([1]; 50 μg intravitreal) | average CNV lesion size vs vehicle controls ([1]; Day 15, 50 μg, p<0.05, FIG. 4A) | anti-angiogenic or vascular disruption activity [1] | dividing immune cells (immune cell response) following retinal detachment ([2]; 20 mg/ml in 5 microliters intravitreally immediately after detachment, 7 days after detachment, vs vehicle, FIG. 1A) | number of Muller cells/mm ([2]; 20 mg/ml in 5 microliters intravitreally, 7 days after detachment, two-tailed T-test, P<0.05 significant, FIG. 1C) | increase in number of proliferating glial cells following retinal detachment ([2]; 20 mg/ml in 5 microliters intravitreally, 7 days after detachment, vs vehicle, FIG. 1B) | increase in number of proliferating Muller cells following retinal detachment ([2]; 20 mg/ml in 5 microliters intravitreally, 7 days after detachment, vs vehicle, FIG. 1C) | increase in number of proliferating astrocytes following retinal detachment ([2]; 20 mg/ml in 5 microliters intravitreally, 7 days after detachment, vs vehicle, FIG. 1D) | frequency of glial scar formation (total number of scars / total area examined) ([2]; 20 mg/ml in 5 microliters intravitreally, 7 days after detachment, vs vehicle, FIG. 2A) | average scar size/length (total scar length / number of scars) ([2]; 20 mg/ml in 5 microliters intravitreally, 7 days after detachment, vs vehicle, FIG. 2B) | subretinal gliosis (glial scarring), vimentin labeled Muller cell processes extending into the subretinal space, immunohistochemistry ([2]; qualitative assessment, 4 treated animals (rats 13-16) vs 4 saline, FIGS. 3C-3D) | average CNV lesion size vs vehicle controls ([1]; Day 15, 400 μg, p<0.01, FIG. 4A) | average CNV lesion size vs vehicle controls ([1]; Day 22, 100 μg, p<0.01, FIG. 4B) | CNV lesion size, dose effect ([1]; two higher tested doses (100 μg or 400 μg), 25 μg not significant) |
| --- | --- | --- | --- | --- | --- | --- | --- | --- | --- | --- | --- | --- | --- | --- |
| C[C@H]1[C@H]2N(C(=O)CN(C)N2C(=O)NCc2ccccc2)[C@@H](Cc2ccc(O)cc2)C(=O)N1Cc1cccc2cccnc12 [Compound C, (6S,9S,9aS)-N-benzyl-6-(4-hydroxybenzyl)-2,9-dimethyl-4,7-dioxo-8-(quinolin-8-ylmethyl)octahydro-1H-pyrazino[2,1-c][1,2,4]triazine-1-carboxamide] | significant impact | statistically significant | demonstrated efficacy | – | – | – | – | – | – | – | – | – | – | – |
| C[C@H]1[C@H]2N(C(=O)CN(C)N2C(=O)NCc2ccccc2)[C@@H](Cc2ccc(OP(=O)(O)O)cc2)C(=O)N1Cc1cccc2cccnc12 [Compound A, 4-(((6S,9S,9aS)-1-(benzylcarbamoyl)-2,9-dimethyl-4,7-dioxo-8-(quinolin-8-ylmethyl)octahydro-1H-pyrazino[2,1-c][1,2,4]triazin-6-yl)methyl)phenyl dihydrogen phosphate] | – | – | demonstrated efficacy | did not have any effect | significantly affected | largely attenuated | largely attenuated | largely attenuated | significantly reduced | significant reduction | no glial scarring was noted | statistically significant | demonstrated significance | demonstrated statistical significance |
